# Measurements as given in patent US12268727B2, “Bioactive polypeptides for improvements in plant protection, growth and productivity” (priority 2017, dated 2025).
# Several values for one entry are separate records, joined by “and”; a condition that tells them apart may be missing. Equal entries are not always repeated.
# Legend:
# [1] = system: peppers (Capsicum); test: Foliar application to pepper, yield; assay type: in vivo, pepper (Capsicum); conditions: for increase in average fruit weight per plant vs surfactant only: Jalapeno, pre-bloom; for combined yield average increase, RK and HHW varieties: first flower
# Procedure: Foliar treatments of Bt.4Q7 Flg22 and Ec.Flg22 bioactive priming polypeptides were applied using small scale plots designed to simulate commercial growing conditions for peppers (Capsicum). Two varieties of pepper: Red Knight (RK) and Hungarian Hot Wax (HHW) were grown from 6-week old transplants in raised beds covered with black plastic mulch that had good water-holding characteristics and a pH of 5.8-6.6. Plants were grown using drip irrigation and fertilizer applied following grower guidelines throughout the growing season to ensure optimum plant growth and yields. Small raised bed plots were designed to simulate the planting densities used by commercial growers that generally plant approximately 10,000-14,000 plants per acre in double rows 14-18 inches (35.6 to 46 cm) apart on plastic mulched beds with 16-24 inches (40.6 to 61 cm) between plants in the row and with the beds spaced 5.0-6.5 feet ([…]) apart from their centers. A single row of peppers also can be planted on each bed (5,000-6,500 plants per acre or 12,355-16,062 plants per hectare).
# Effects of the foliar applications on pepper yield were determined for two separate harvests using a once over harvest approach and normalized to the yield of the control plants. The average percentage change in yield for each treatment over the yield for the control plants is reported as pounds/acre (lbs/Ac) in Table 29.
# Foliar treatment of Gm.RHPP (SEQ ID NO: 600) was applied as an exogenous spray at the first-bloom stage to increase yield in two pepper varieties. Foliar treatment of Gm.RHPP was applied using small scale plots designed to simulate commercial growing conditions for peppers (Capsicum) as described in Example 13. Foliar applications with the Gm.RHPP bioactive priming polypeptide were applied at the first flower stage, on two varieties of pepper, Red Knight (RK) and Hungarian Hot Wax (HHW). […] Effects of the foliar applications on pepper yield were determined for two separate harvests using a once over harvest approach and normalized to the yield of the control plants. The average percentage change in yield over the yield for the control plants is reported in Table 42, as the percent change per total weight (lbs/Ac) of peppers harvested. Average percent change in yield is reported for the 2 replicate harvests (trials) for the RK and HHW pepper varieties and then as a combined average for both varieties.
# Small-scale plots were designed to simulate commercial growing conditions for jalapeno peppers. Peppers were grown for 12-weeks in a controlled growth room and then transplanted outside in 2 raised beds covered with black plastic mulch that had good water-holding characteristics and in soil having a pH of 5.8-6.6. Jalapeno pepper plants were spaced 14-16 inches (38 cm) apart with 16-24 inches (50 cm) between plants containing approximately 25 plants per row bed. Plants were grown using drip irrigation and fertilizer applied following grower guidelines throughout the growing season to provide optimum conditions for plant growth. The raised bed plots were designed to simulate the planting densities used by commercial growers that generally plant approximately plants per acre (5,000-6,500 plants per acre or 12,355-16,062 plants per hectare) in double rows 35.6-45.7 cm apart with the beds spaced 5.0-6.5 feet (1.52-1.98 meters) apart from their centers (Orzolek et al., “Agricultural Alternatives: Pepper Production.” University Park: Penn State Extension, 2010).
# [2] = system: tomatoes; test: Foliar application to tomato, yield; assay type: in vivo; conditions: for change in fruit weight per plant vs no spray control: Roma, Bt.4Q7Flg22 16.7 μM at 4.0 Fl. oz/Ac, Gm.RHPP 100 μM at 3.2 Fl. oz/Ac
# Procedure: Small scale plots were designed to simulate commercial growing conditions for tomatoes. Two hybrids of tomatoes, JetSetter (Trial 1) and Better Big Boy (Trial 2) were started as transplants in the greenhouse 42 to 56 days prior to planting in the raised field beds. Tomatoes were transplanted once soil temperatures three inches (7.6 cm) beneath the soil surface reach 60° F. (15.5° C.). Tomatoes were grown on raised beds covered with black plastic mulch. Plants were grown using drip irrigation and fertilizer applied following grower guidelines throughout the growing season to ensure optimum plant growth and yields. Small raised bed plots were designed to simulate the planting densities used by commercial growers that generally plant 2,600 to 5,800 plants per acre in single rows with 18 to 30 inches (46 to 76 cm) between plants in the row on 5- to 6.5-ft (1.5 to 2 m) centers.
# Foliar treatments of Bt.4Q7 Flg22 and Ec. […] Replicated trials were conducted at the University of Missouri (Columbia, Mo.) in July. Control plants were treated with equal volumes (use rates) of water. Effects of the foliar treatments on increasing yield in tomatoes were determined and reported as normalized to the water control treatment.
# In another experiment, tomato plants (hybrid: Better Boy), cultivated as described in the previous example, were treated with a formulation of Bt.4Q7 Flg22 at the first bloom stage. The formulation used consisted of the retro inverso D RI Bt.4Q7 Flg22 applied with 0.01% (v/v) non-ionic surfactant. […] At harvest, the yield was measured as the number of fruits per plant, the weight (grams) per fruit and the total yield (lbs/Ac). Table 29 reports the yield as a percent comparison or change to the non-treated control (water only) plants.
# Foliar application treatments of Gm.RHPP (SEQ ID NO: 600) was applied as an exogenous spray at the pre-bloom stage and used to increase yield in tomatoes. Two tomato hybrids (JetSetter and Better Big Boy) were planted in small scale plots as described in Example 12. […] Replicated trials were conducted at the US Midwest (Missouri) in July. The foliar treatment of Gm.RHPP on tomato plants was compared to the control (water applied at same use rate). Effects of the foliar treatments on increasing yield in tomatoes were determined and reported as normalized to the water control treatment and reported as the average percentage change in yield over the average control yield in Table 41.
# Small scale plots were designed to simulate commercial growing conditions for tomatoes. Tomato plants, variety Roma were started from transplants that were grown in a greenhouse for 45 days prior to planting into 2 raised field row beds with 2 feet (0.6 meters) between each transplant with an average of 30 plants per row bed. […] Tomatoes were grown on raised beds covered with black plastic mulch. Plants were grown using drip irrigation and fertilizer (80 lbs. or 36.3 kg) nitrogen; 100 lbs. (45.4 kg) phosphate, and 100 lbs. (45.4 kg) potash or potassium) applied following grower guidelines throughout the growing season to provide for optimum plant growth and yields. Small raised bed plots were designed to simulate the planting densities used by commercial growers that generally plant 2,600 to 5,800 plants per acre in single rows with 45.7 to 76.2 cm between plants in the row on 1.5- to 2-meter centers. [Orzolek et al., “Agricultural Alternatives: Tomato Production.” University Park: Penn State Extension, 2016].
# Foliar treatments using Bt.4Q7Flg22 and Gm.RHPP were applied on the tomato plants directly at early bloom (first flower) stage.
# [3] = 1 Fl. oz/Ac, foliar at first flower
# [4] = 20 Fl. oz/Ac, foliar at first flower
# [5] = Bt.4Q7Flg22 2 Fl. oz/Ac, Gm.RHPP 3.2 Fl. oz/Ac
# [6] = 1 Fl. oz/Ac, first bloom, hybrid Better Boy, formulation with 0.01% non-ionic surfactant
# [7] = 1 Fl. oz/Ac, foliar at early bloom
# [8] = 20 Fl. oz/Ac, foliar at early bloom
# [9] = Jalapeno pepper, foliar at early bloom, 100 μM, 3.2 fl oz/Ac
# [10] = foliar 1 Fl. oz/Ac at first flower, vs water control, 2 harvests
# [11] = foliar 1 Fl. oz/Ac at early bloom, vs water control
substance,measurement,setting,value
Bt.4Q7Flg22: Flg22 polypeptide (22 amino acids) from flagellin of Bacillus thuringiensis strain 4Q7 (DRLSSGKRINSASDDAAGLAIA; listed as Bacillus thuringiensis),Avg. Percent Change Yield Total Weight (lbs/Ac) (Hungarian Hot Wax) 2 Replicate Trials,[1]; [3],+77%
same,Avg. Percent Change Yield Total Weight (lbs/Ac) Red Knight 2 Replicate Trials,[1]; [3],+29%
same,Combined Avg. Percent Change Yield Total Number (lbs/Ac) RK and HHW,[1]; [3],+53%
same,Avg. Percent Change Yield Total Weight (lbs/Ac) (Hungarian Hot Wax) 2 Replicate Trials,[1]; [4],+42%
same,Avg. Percent Change Yield Total Weight (lbs/Ac) Red Knight 2 Replicate Trials,[1]; [4],+8%
same,Combined Avg. Percent Change Yield Total Number (lbs/Ac) RK and HHW,[1]; [4],+25%
same,increase in average fruit weight per plant vs surfactant only,[1]; 4 Fl. oz/Ac,40%
same,increase in average fruit weight per plant vs surfactant only,[1]; [5],49%
same,"combined yield average increase, RK and HHW varieties",[1]; high rate 20 Fl. oz/Ac,25%
same,"combined yield average increase, RK and HHW varieties",[1]; low rate 1 Fl. oz/Ac,53%
same,"yield increase over control, HHW variety",[1]; high rate 20 Fl. oz/Ac,42%
same,"yield increase over control, HHW variety",[1]; low rate 1 Fl. oz/Ac,77% and 72%
same,Percent Change in Number of Fruits per Plant Compared to Control,[2]; [6],+12%
same,Percent Change in Weight/Fruit Compared to Control,[2]; [6],+9%
same,Percent Change in Yield (lbs/Ac) Compared to Control,[2]; [6],+21%
same,Average Trials 1 & 2 Percent Change Yield over Avg. Control,[2]; [7],+25%
same,Trial 1: Percent Change in Yield over Avg. Control; Hybrid: Jetsetter,[2]; [7],+49%
same,Trial 2: Percent Change in Yield over Avg. Control; Hybrid: Better Big Boy,[2]; [7],+1%
same,Average Trials 1 & 2 Percent Change Yield over Avg. Control,[2]; [8],+17%
same,Trial 1: Percent Change in Yield over Avg. Control; Hybrid: Jetsetter,[2]; [8],+22%
same,Trial 2: Percent Change in Yield over Avg. Control; Hybrid: Better Big Boy,[2]; [8],+12%
same,change in fruit weight per plant vs no spray control,[2],8.61%
same,"increase in tomato yield over control, two hybrids averaged","[2]; early bloom, high rate 20 Fl. oz/Ac",17%
same,"increase in tomato yield over control, two hybrids averaged","[2]; early bloom, low rate 1 Fl. oz/Ac",25%
"GGIRAAPTGNER (Glycine max) [RHPP, Root Hair Promoting Peptide from Glycine max]","increase in yield vs control, combined average of both varieties",[1]; 1 Fl. oz/Ac,67%
same,increase in yield vs control,"[1]; 1 Fl. oz/Ac, HHW peppers",46%
same,increase in yield vs control,"[1]; 1 Fl. oz/Ac, RK peppers",87%
same,Average Fruit Weight (grams) per Plant,[1]; [9],156.6 grams
same,Percentage Change in Fruit Weight Compared to Surfactant Control,[1]; [9],+27%
same,increase in average fruit weight per plant vs surfactant only,[1]; [5],27%
same,Avg. Percent Change Yield Total Weight (lbs/Ac) Hungarian Hot Wax,[1]; [10],+46%
same,Avg. Percent Change Yield Total Weight (lbs/Ac) Red Knight,[1]; [10],+87%
same,Combined Avg. Percent Change Yield Total Number (lbs/Ac) RK and HHW,"[1]; foliar 1 Fl. oz/Ac at first flower, vs water control, both varieties",+67%
same,increase in tomato yield over control,"[2]; 1 Fl. oz/Ac, Better Big Boy",10%
same,increase in tomato yield over control,"[2]; 1 Fl. oz/Ac, Jetsetter hybrid",93%
same,"average increase in tomato yield over control, two hybrids","[2]; 1 Fl. oz/Ac, early bloom",52%
same,Percentage Change in Fruit Weight Compared to No-Spray Control,"[2]; Roma tomato, foliar at early bloom, Bt.4Q7Flg22 16.7 μM 4.0 Fl. oz/Ac, Gm.RHPP 100 μM 3.2 Fl. oz/Ac",+1.99%
same,Average Fruit Weight (grams) per Plant,"[2]; Roma tomato, foliar at early bloom, Bt.4Q7Flg22 16.7 μM 4.0 Fl. oz/Ac, Gm.RHPP 100 μM 3.2 Fl. oz/Ac, 2 harvests",1397.1 grams
same,change in fruit weight per plant vs no spray control,[2],~2%
same,Average Trials 1 & 2 Percent Change Yield over Avg. Control,"[2]; foliar 1 Fl. oz/Ac at early bloom, both tomato hybrids",+52%
same,Trial 1: Percent Change in Yield over Avg. Control; Hybrid: Jetsetter,[2]; [11],+93%
same,Trial 2: Percent Change in Yield over Avg. Control; Hybrid: Better Big Boy,[2]; [11],+10%
